“Also recorded” adds a separate entry of the source.
What was measured:
[1] = system: human embryonic stem cell-derived embryoid bodies; test: RT-PCR of osteoblast-specific genes, embryoid body formation method (FIG. 6); format: cell-based; conditions: for expression level of osteoblastic markers / expression level of osteoblast-specific genes compared to untreated control: embryoid bodies; for expression level of osteoblastic markers: 20 nM rapamycin for three weeks; for expression level of osteoblast-specific genes compared to untreated control: LY294002 (0-50 μM), AKT inhibitor (0-20 μM), or rapamycin (0-200 nM) for 1~3 weeks; for expression levels of osteoblast-specific genes: embryoid body formation method
Experimental: After being collected as a suspension, the cell clumps were transferred into bacterial cell culture dishes and incubated for 5 days in a suspension culture manner. Afterwards, the embryoid bodies thus obtained were transferred to Matrigel (BD biosciences, USA)-coated culture dishes, free of human recombinant FGF basic, containing 0.1˜200 nM rapamycin, […], or osteogenic supplements (10 mM β-glycerophosphate, 0.1 mM Dexamethasone, and 0.1 mM L-ascorbic acid) for three weeks in an adhesion culture manner to achieve osteogenic differentiation (FIG. 3A).
(§1) The differentiation of human embryonic stem cells into osteoblasts in Example 3 was examined by detecting the expression of osteoblast-specific genes through RT-PCR and quantitative real-time PCR. For this, after treatment or non-treatment with rapamycin, LY294002, an AKT inhibitor or osteogenic supplements (10 mM β-glycerophosphate, 0.1 mM Dexamethasone, and 0.1 mM L-ascorbic acid), cells were collected according to differentiation stages and subjected to total RNA isolation using a TRIzol reagent (Invitrogen, USA). The RNA was used as a template to synthesize cDNA with a oligo(dT) primer in the presence of a Superscript II reverse transcriptase, followed by PCR with various primers listed in Table 1, below.
(§2) Osteogenic differentiation using the embryoid body formation method is schematically illustrated in FIG. 3A. Initially, human embryonic stem cells are cultured for one day in the same manner as in the adhesion culture method, after which the colonies thus grown are sliced into cell clumps using a tool made from a glass pipette.

[2] = system: human embryonic stem cells; test: RT-PCR of osteoblast-specific genes, adhesion culture (FIG. 5); format: cell-based; conditions: for expression of osteoblast-specific genes: 10 μM of LY29400, 1 μM of an AKT inhibitor, or rapamycin; for expression level of osteoblastic markers: human embryonic stem cells, LY294002, AKT inhibitor, or 20 nM rapamycin for 5 days
Experimental: For osteogenic differentiation by adhesion culturing, the human embryonic stem cells obtained in Example 1, after passage, were cultured in the culture medium of Example 1 for 2 days, and then in a culture medium, free of recombinant human FGF basic, […], 0.01˜50 μM LY294002, 0.01˜20 μM AKT inhibitor, or conventional osteogenic supplements (10 mM β-glycerophosphate, 0.1 mM Dexamethasone, 0.1 mM L-ascorbic acid) for […], with daily replacement with a fresh embryonic stem cell culture medium (FIG. 2A).
as §1
First, a description is given of the adhesion culture method. […] Afterwards, the human embryonic stem cells are induced to differentiate into osteoblasts by being cultured for five days in a medium that is the same except that it is free of recombinant human FGF basic and is supplemented with LY294002, an AKT inhibitor, rapamycin, and/or conventional osteogenic supplements (10 mM 3-glycerophosphate, 0.1 mM Dexamethasone, and 0.1 mM L-ascorbic acid) (Stage II).

[3] = system: human embryonic stem cells; test: Cytotoxicity in differentiation culture; format: cell-based; conditions: for cytotoxicity: 10 μM of LY29400, 1 μM of an AKT inhibitor, or 220 nM of rapamycin
[4] = system: PI4K, an EGR receptor, a PDGF receptor, an insulin receptor, an MAP kinase, an S6 kinase; conditions: cited from earlier work
PI3K = conditions: cited from earlier work
[5] = system: human embryonic stem cell-derived embryoid bodies; test: Quantitative real-time PCR of osteoblast-specific genes (FIGS. 7, 8, 11); format: cell-based
Experimental: After being collected as a suspension, the cell clumps were transferred into bacterial cell culture dishes and incubated for 5 days in a suspension culture manner. Afterwards, the embryoid bodies thus obtained were transferred to Matrigel (BD biosciences, USA)-coated culture dishes, free of human recombinant FGF basic, containing 0.1˜200 nM rapamycin, 0.01˜50 μM LY294002, 0.01˜20 μM AKT inhibitor, or osteogenic supplements (10 mM β-glycerophosphate, 0.1 mM Dexamethasone, and 0.1 mM L-ascorbic acid) for three weeks in an adhesion culture manner to achieve osteogenic differentiation (FIG. 3A).
as §1, §2

[6] = system: human embryonic stem cell-derived embryoid bodies; test: Immunofluorescent staining for BSP and osteocalcin; format: cell-based
Experimental: The osteogenic differentiation of the cells obtained using the three differentiation inducing techniques described in Example was identified by immunofluorescent staining. First, the cells were placed on a 1 cm^2 cover glass and the medium was aspirated. Following washing with PBS, the cells were incubated with a fixing solution (citrate-acetone-formaldehyde) for about 30 sec at room temperature and washed with distilled water for 45 sec. Next, treatment with 3% bovine serum albumin/phosphate buffered saline (BSA/PBS) for 30 min was followed by incubation with a primary antibody for 12 hrs. Then, the cells were washed three times for 15 min in 0.1% Triton X-100/PBS before labeling by incubation with an Alexa488-conjugated secondary antibody (Molecular probes, USA) for 30 min at room temperature. The cells were washed again three times in 0.1% Triton X-100/PBS for 15 min each time for observation under a fluorescent microscope (Olympus, Japan). In order to identify osteogenic differentiation, anti-bone sialoprotein (anti-BSP, Chemicon; 1:100), and anti-osteocalcin (R&D Systems; 1:500) were used for immunofluorescence.

[7] = system: human embryonic stem cell-derived embryoid bodies; test: Analysis for mineralization by Alizarin-Red S staining; format: cell-based
Experimental: The cells obtained using the three differentiation inducing techniques described in Example 3 were analyzed for mineralization using an Alizarin-Red S staining method. After aspirating the culture medium, the cells on the culture dish were washed with PBS and fixed at 4° C. for 1 hr with 70% ethanol. Thereafter, the cells were stained with a 40 mM alizarin red (AR) solution (pH 4.2) for 10 min, washed with distilled water, and observed for mineral nodule formation under an optical microscope before they were completely dried. […] A culture period of three weeks was required to maximize the number of Alizarin Red-positive cells upon osteogenic differentiation with rapamycin alone.

[8] = osteoblasts differentiated from embryoid bodies, FIG. 6
[9] = embryoid bodies, one week of differentiation, FIG. 7
[10] = two weeks of differentiation culture, FIG. 7

Compound: CCCCCCCCCCCCCCCCCCOC[C@H](COC(=O)OC1C(O)C(O)C(O)C(CO)C1O)OC (stereo partly drawn) [AKT inhibitor]
- expression level of osteoblastic markers [1]: increase in expression level
- expression level of osteoblast-specific genes compared to untreated control [1]: increase in the expression level
- expression levels of osteoblast-specific genes ([1]; FIG. 6): increase the expression levels
- expression of osterix and osteoprotegerin [1, 8]: expressed at high levels
- expression of osteoblast-specific genes [2]: efficiently expressed
- expression level of osteoblastic markers [2]: increase in expression level
- cytotoxicity [3]: without the occurrence of cytotoxicity

Compound: O=c1cc(N2CCOCC2)oc2c(-c3ccccc3)cccc12 [LY294002]
- inhibition of PI4K, an EGR receptor, a PDGF receptor, an insulin receptor, an MAP kinase, an S6 kinase [4]: does not inhibit
- expression level of osteoblastic markers [1]: increase in expression level
- expression level of osteoblast-specific genes compared to untreated control [1]: increase in the expression level
- expression levels of osteoblast-specific genes ([1]; FIG. 6): increase the expression levels
- expression of osterix and osteoprotegerin [1, 8]: expressed at high levels
- expression of osteoblast-specific genes [2]: efficiently expressed
- expression level of osteoblastic markers [2]: increase in expression level
- cytotoxicity [3]: without the occurrence of cytotoxicity
- inhibition of PI3K (PI3K): inhibits PI3K

Compound: CO[C@H]1C[C@@H]2CC[C@@H](C)[C@@](O)(O2)C(=O)C(=O)N2CCCC[C@H]2C(=O)O[C@H]([C@H](C)C[C@@H]2CC[C@@H](O)[C@H](OC)C2)CC(=O)[C@H](C)/C=C(\C)[C@@H](O)[C@@H](OC)C(=O)[C@H](C)C[C@H](C)/C=C/C=C/C=C/1C [rapamycin]
- expression level of osteoblastic markers [1]: increase in expression level
- expression level of osteoblast-specific genes compared to untreated control [1]: increase in the expression level
- expression levels of osteoblast-specific genes ([1]; FIG. 6): increase the expression levels
- osteogenic induction activity among the three compounds ([1]; even at low doses, FIG. 6): most potent induction activity
- induction of embryoid bodies to differentiate into osteoblasts relative to LY294002 and AKT inhibitor ([1]; osteoblastic markers, FIG. 6): more effectively induce
- amounts of marker genes expressed relative to LY294002 or an AKT inhibitor [1, 8]: as great as or greater than
- diversity of expressed marker genes (BMP2, osteocalcin, Cbfa-2, osterix, osteoprotegerin, GATA2, CMP) [1, 8]: highest diversity
- expression of osterix and osteoprotegerin [1, 8]: expressed at high levels
- expression of osteoblast-specific genes, dose comparison ([2]; 20 nM versus 10 nM of rapamycin): greater levels in the presence of 20 nM than 10 nM
- expression levels of Osteocalcin and Osteonectin, dose comparison ([2]; 20 nM versus 10 nM rapamycin, FIG. 5): higher at a dose of 20 nM than 10 nM
- expression of osteoblast-specific genes [2]: efficiently expressed
- expression level of osteoblastic markers [2]: increase in expression level
- expression of osterix, BMP2, and osteonectin genes ([2]; two cell lines, adhesion culture, FIG. 5): expressed in both cell lines, but in different patterns
- expression of osteoblastic markers Cbfa-1, osteocalcin, and osteoprotegerin ([2]; two independently established cell lines, adhesion culture, compared to an undifferentiated control, FIG. 5): expressed; also recorded: distinctively higher levels
- cytotoxic effects ([3]; 20 nM of rapamycin added to a culture medium): no cytotoxic effects
- cytotoxicity [3]: without the occurrence of cytotoxicity
- osteogenic differentiation activity relative to conventional osteogenic supplements (cell morphology, expression level of osteoblastic markers) ([5]; FIGS. 2, 7 and 8): as good as or better than
- expression level of osterix, BMP2, BMP4, α1 type I collagen, osteocalcin, osteoprotegerin, osteonectin, and osteopontin ([5]; after three weeks of differentiation culture, FIG. 8): continued to increase in expression level
- expression level of Cbfa1 ([5]; both human embryonic stem cell lines, after three weeks of differentiation culture): decreased in the expression level
- expression levels of osterix, BMP4, α1 type I collagen, osteoprotegerin, and osteopontin ([5]; both human embryonic stem cell lines, three weeks of differentiation culture): similarly increased
- expression of BMP2 increased [5, 9]: 1.38 fold
- expression of BSP increased [5, 9]: 6.54 fold
- expression of Cbfa1 increased [5, 9]: 3.24 fold
- expression of osteocalcin increased [5, 9]: 1.84 fold
- expression of osteopontin increased [5, 9]: 2.89 fold
- expression level of osteoblastic markers ([5]; embryoid bodies, one week of incubation with rapamycin, FIG. 7): increase in expression level
- expression level of BMP2 increased [5, 10]: 1.34 fold
- expression level of BMP4 increased [5, 10]: 1.18 fold
- expression level of BSP increased [5, 10]: 1.63 fold
- expression level of Cbfa-1 increased [5, 10]: 2.11 fold
- expression level of osteocalcin increased [5, 10]: 1.61 fold
- expression level of osteonectin increased [5, 10]: 1.94 fold
- expression level of osteopontin increased [5, 10]: 5.81 fold
- expression level of osteoprotegerin increased [5, 10]: 2.18 fold
- expression level of osterix increased [5, 10]: 1.59 fold
- expression level of α1 type I collagen increased [5, 10]: 1.35 fold
- ability to induce osteogenic differentiation relative to conventional osteogenic supplements ([6]; FIG. 9): as good as or better than
- number of cells differentiated into osteoblasts (BSP or osteocalcin antibody) relative to conventional osteogenic supplements ([6]; FIG. 9): same or greater number
- immunofluorescent staining with antibodies to BSP and osteocalcin ([6]; embryoid bodies, three weeks, 20 nM rapamycin): positively stained
- Alizarin-Red staining of differentiated cells ([7]; cells induced to differentiate, FIG. 10): positively stained
- incubation needed to obtain a mature osteoblast phenotype ([7]; embryoid bodies incubated with rapamycin): additional three weeks
- differentiation into mature osteoblasts ([7]; embryoid bodies, 20 nM rapamycin for three weeks): most efficient differentiation
- Alizarin Red S staining ([7]; embryoid bodies, three weeks, 20 nM rapamycin, FIG. 10): positively stained
- culture period required to maximize the number of Alizarin Red-positive cells ([7]; osteogenic differentiation with rapamycin alone): three weeks

Reference: US8093050B2, “mTOR inhibtors and mTOR signaling pathway inhibitors induce differentiation of human embryonic stem cells into the osteoblastic lineage” (Korea Research Institute of Bioscience and Biotechnology, priority 2007, dated 2012)
